{"source": "the supplement of paper PMC10307832", "experiment_in_all_cases": "relative viability (nuclei count vs DMSO), 5 days (fraction); higher = more cells survive", "key": {"[1]": {"compound": "CC1=CC(=CC=C1)NC2=NC(=CS2)C3=CC=NC=C3 + COc1cc2c(Oc3ccc(NC(=O)C4(C(=O)Nc5ccc(F)cc5)CC4)cc3F)ccnc2cc1OCCCN1CCOCC1 [Foretinib] (partner 0.25 µM)", "method_in_brief": "(§1)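 Each reported value is a median over duplicate plates. It expresses relative viability: treated-well nuclei count divided by vehicle-well nuclei count. Lung cancer cell lines in 1536-well plates were dosed by pin tool a day after seeding, alone with one drug or with a fixed anchor-drug dose plus five library-drug doses (not always all listed) in √10 steps, and nuclei were counted after 5 days.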"}, "[2]": {"compound": "CC1=CC(=CC=C1)NC2=NC(=CS2)C3=CC=NC=C3 + CS(=O)(=O)CCNCc1ccc(-c2ccc3ncnc(Nc4ccc(OCc5cccc(F)c5)c(Cl)c4)c3c2)o1 [Lapatinib] (partner 2 µM)", "method_in_brief": "as §1"}, "Masitinib + Dasatinib": {"compound": "Cc1ccc(NC(=O)c2ccc(CN3CCN(C)CC3)cc2)cc1Nc1nc(-c2cccnc2)cs1 [Masitinib] + Cc1nc(Nc2ncc(C(=O)Nc3c(C)cccc3Cl)s2)cc(N2CCN(CCO)CC2)n1 [Dasatinib] (partner 0.075 µM)", "method_in_brief": "as §1"}, "Masitinib + Olaparib": {"compound": "Cc1ccc(NC(=O)c2ccc(CN3CCN(C)CC3)cc2)cc1Nc1nc(-c2cccnc2)cs1 [Masitinib] + O=C(c1cc(Cc2n[nH]c(=O)c3ccccc23)ccc1F)N1CCN(C(=O)C2CC2)CC1 [Olaparib] (partner 8 µM)", "method_in_brief": "as §1"}}}
{"cell line": "UMC-11", "values": [{"measurement": "relative viability", "setting": "[1]; first compound 0.08 µM", "result": 1.04}, {"measurement": "relative viability", "setting": "[1]; first compound 0.253 µM", "result": 1.04}, {"measurement": "relative viability", "setting": "[1]; first compound 0.8 µM", "result": 1.02}, {"measurement": "relative viability", "setting": "[1]; first compound 2.53 µM", "result": 1.15}, {"measurement": "relative viability", "setting": "[1]; first compound 8 µM", "result": 1.17}, {"measurement": "relative viability", "setting": "[2]; first compound 0.08 µM", "result": 0.839}, {"measurement": "relative viability", "setting": "[2]; first compound 0.253 µM", "result": 0.85}, {"measurement": "relative viability", "setting": "[2]; first compound 0.8 µM", "result": 0.885}, {"measurement": "relative viability", "setting": "[2]; first compound 2.53 µM", "result": 0.934}, {"measurement": "relative viability", "setting": "[2]; first compound 8 µM", "result": 1.02}, {"measurement": "relative viability", "setting": "Masitinib + Dasatinib; first compound 0.03162 µM", "result": 0.35}, {"measurement": "relative viability", "setting": "Masitinib + Dasatinib; first compound 0.1 µM", "result": 0.535}, {"measurement": "relative viability", "setting": "Masitinib + Dasatinib; first compound 0.3162 µM", "result": 0.556}, {"measurement": "relative viability", "setting": "Masitinib + Dasatinib; first compound 1 µM", "result": 0.509}, {"measurement": "relative viability", "setting": "Masitinib + Olaparib; first compound 0.01 µM", "result": 0.354}, {"measurement": "relative viability", "setting": "Masitinib + Olaparib; first compound 0.03162 µM", "result": 0.371}, {"measurement": "relative viability", "setting": "Masitinib + Olaparib; first compound 0.1 µM", "result": 0.372}, {"measurement": "relative viability", "setting": "Masitinib + Olaparib; first compound 0.3162 µM", "result": 0.376}, {"measurement": "relative viability", "setting": "Masitinib + Olaparib; first compound 1 µM", "result": 0.398}]}
